Results: patent publication US20030130203A1, “Medicament for combating respiratory depression” (priority 2000, published 2003)

Test system: awake male Sprague Dawley rats
Assay: Measurement of respiratory rate on the awake rat
Type: in vivo
Details: i.v., measured immediately and up to 15 min
Protocol: Measurement of Respiratory Rate on the Awake Rat
To study the respiratory rate, awake male Sprague Dawley rats (Janvier, France) weighing 190 to 315 g were immobilized in Plexiglas tubes. For intravenous administration of the medicament solutions, the rats were each provided with a catheter in the caudal vein. The respiratory rate of the rats was measured via a water-filled balloon catheter located laterally between the rat and the Plexiglas tube. The balloon catheter was connected to a pressure sensor and a high-speed chart recorder (Gould, Dietzenbach).
After an equilibration period of 30 minutes, a baseline value for the respiratory rate was determined. The appropriate active ingredient solution was then administered intravenously and the respiratory rate was measured immediately and after 1, 2, 5, 10 and 15 minutes. Each rat received a single administration per day.

## C[C@H]1SC[C@@H](C(=O)N[C@H](Cc2c[nH]cn2)C(=O)N2CCC[C@H]2C(N)=O)NC1=O [Example 1, montirelin]
0.215 mg/kg montirelin together with 10 mg/kg morphine in 0.9% saline
  respiratory rate: no decrease in respiratory rate

## CN1CC[C@]23c4c5ccc(O)c4O[C@H]2[C@@H](O)C=C[C@H]3[C@H]1C5 [Comparative Example 1, morphine]
10 mg/kg morphine only in 0.9% saline
  respiratory rate: marked decrease in respiratory rate
